Data set [1] deals with T1, B1 bradykinin receptor (Homo sapiens, UniProt P46663).
T1 sequence (P46663 whole entry): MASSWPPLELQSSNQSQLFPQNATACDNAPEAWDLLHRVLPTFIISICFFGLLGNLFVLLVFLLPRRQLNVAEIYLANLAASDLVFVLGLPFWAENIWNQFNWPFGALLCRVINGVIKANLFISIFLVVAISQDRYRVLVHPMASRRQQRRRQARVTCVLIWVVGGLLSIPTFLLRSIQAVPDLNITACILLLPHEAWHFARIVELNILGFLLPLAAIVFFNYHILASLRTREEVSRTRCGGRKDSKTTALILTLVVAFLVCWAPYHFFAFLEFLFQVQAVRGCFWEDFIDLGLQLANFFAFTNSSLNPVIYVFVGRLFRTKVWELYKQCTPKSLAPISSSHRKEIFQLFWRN
Briefly: Inhibition of human B1 receptor.

The target of data set [2] is T1, B1 bradykinin receptor. In words: Inhibition of human B1 receptor by calcium influx functional assay.
Data set [3] can be described thus: Half life in rat at 1 mg/kg, iv. Details: dose 1 mg/kg, route intravenous. The note with it: in vivo. Type of data set: ADME, organism-based.
A short description of data set [4]: Clearance in rat at 1 mg/kg, iv. Type of data set: ADME, organism-based. Details: dose 1 mg/kg, route intravenous. Conditions: in vivo.
The nature of data set [5]: Volume of distribution in rat at 1 mg/kg, iv. The class given is ADME, organism-based. Details: dose 1 mg/kg, route intravenous. The note with it: in vivo, read-out: Vss.
Data set [6] can be described thus: Oral bioavailability in rat at 10 mg/kg, po. The class given is ADME, organism-based. The note with it: in vivo.

Broadly, the IC50 is the concentration that gives 50% inhibition. For the compound `CC(C)(C)CNCc1ccc2c(c1)CCC[C@H]2NC(=O)C[C@@H]1CCCCN1S(=O)(=O)c1cccc(C(F)(F)F)c1`, the IC50 at B1 bradykinin receptor [1] turned out to be 59 nM; at B1 bradykinin receptor [2], 230 nM.
As to `COc1ccc(S(=O)(=O)N2CCCC[C@H]2CC(=O)N[C@@H]2CCCc3cc(CNC(C)(C)C)ccc32)cc1`, the IC50 against B1 bradykinin receptor [1] worked out at 780 nM; at B1 bradykinin receptor [2] it was 1400 nM.
In the case of `CC(C)(C)NCc1ccc2c(c1)CCC[C@H]2NC(=O)C[C@@H]1CCCCN1S(=O)(=O)c1cccc2cccnc12`, the IC50 is 220 nM against B1 bradykinin receptor [1] and 440 nM at B1 bradykinin receptor [2].
Taken in the same sequence, the figures for `CC(C)(C)NCc1ccc2c(c1)CCC[C@H]2NC(=O)C[C@@H]1CCCCN1S(=O)(=O)c1cccc2cnccc12` were 610 nM and 4300 nM.
On the same counts, the results for `CN(C)Cc1ccc2c(c1)CCC[C@H]2NC(=O)C[C@@H]1CCCCN1S(=O)(=O)c1cccc(C(F)(F)F)c1` are 62 nM and 160 nM.
For the compound `O=C(C[C@@H]1CCCCN1S(=O)(=O)c1cccc(C(F)(F)F)c1)N[C@@H]1CCCc2cc(CNC3CC3)ccc21`, the results for the half-inhibitory concentration (IC50) on B1 bradykinin receptor [1] and at B1 bradykinin receptor [2] were 48 nM and 47 nM, respectively.
Consider `Cn1cnc(S(=O)(=O)N2CCCC[C@H]2CC(=O)N[C@@H]2CCCc3cc(CNC(C)(C)C)ccc32)c1`, for which the IC50 on B1 bradykinin receptor [1] was greater than 100000 nM; on B1 bradykinin receptor [2], greater than 40000 nM.
Taken in the same sequence, the figures for `CC(C)NCc1ccc2c(c1)CCC[C@H]2NC(=O)C[C@@H]1CCCCN1S(=O)(=O)c1cccc(C(F)(F)F)c1` were 72 nM and 110 nM.
For the compound `CC(C)(C)NCc1ccc2c(c1)CCC[C@H]2NC(=O)C[C@@H]1CCCCN1S(=O)(=O)c1ccc(Cl)cc1`, the IC50 worked out at 560 nM at B1 bradykinin receptor [1] and 810 nM on B1 bradykinin receptor [2].
Taken in the same sequence, the figures for `CC(C)(C)NCc1ccc2c(c1)CCC[C@H]2NC(=O)C[C@@H]1CCCCN1S(=O)(=O)c1csc2ccccc12` were 14 nM and 66 nM.
On the same counts, the results for `CC(C)(C)NCc1ccc2c(c1)OCC[C@H]2NC(=O)C[C@@H]1CCCN1S(=O)(=O)c1cccc(C(F)(F)F)c1` are 1500 nM and 960 nM.
On the same counts, the results for `CC(C)(C)NCc1ccc2c(c1)OCC[C@H]2NC(=O)C[C@@H]1CCCCN1S(=O)(=O)c1cccc(C(F)(F)F)c1` are 160 nM and 95 nM.
As for `O=C(C[C@@H]1CCCCN1S(=O)(=O)c1cccc(C(F)(F)F)c1)N[C@@H]1CCCc2cc(CNCC(F)(F)F)ccc21`, the IC50 is 1900 nM on B1 bradykinin receptor [1] and 700 nM at B1 bradykinin receptor [2].
For `CC(C)(C)NCc1ccc2c(c1)CCC[C@H]2NC(=O)C[C@@H]1CCCCN1S(=O)(=O)c1ccc(C(F)(F)C(F)(F)F)cc1`, the IC50 at B1 bradykinin receptor [1] amounted to 360 nM; on B1 bradykinin receptor [2], 210 nM.
Taken in the same sequence, the figures for `Cc1ccc(S(=O)(=O)N2CCCC[C@H]2CC(=O)N[C@@H]2CCCc3cc(CNC(C)(C)C)ccc32)cc1C(F)(F)F` were 11 nM and 16 nM.
Taken in the same sequence, the figures for `CC(C)(C)NCc1ccc2c(c1)CCC[C@H]2NC(=O)C[C@@H]1CCCCN1S(=O)(=O)c1ccccc1` were 1700 nM and 2400 nM.
`Cc1ccc(S(=O)(=O)N2CCCC[C@H]2CC(=O)N[C@@H]2CCCc3cc(CNC(C)(C)C)ccc32)cc1`: the IC50 on B1 bradykinin receptor [1] is 93 nM; on B1 bradykinin receptor [2] it was 130 nM.
Taken in the same sequence, the figures for `O=C(C[C@@H]1CCCCN1S(=O)(=O)c1cccc(C(F)(F)F)c1)N[C@@H]1CCCc2cc(CN3CCC3)ccc21` were 1100 nM and 4300 nM.
Taken in the same sequence, the figures for `O=C(C[C@@H]1CCCCN1S(=O)(=O)c1cccc(C(F)(F)F)c1)N[C@@H]1CCCc2cc(CNCC3CC3)ccc21` were 16 nM and 31 nM.
As a reminder, the half-life is the time needed for the level to fall by half in the phase considered. Low values mean fast loss, high ones slow loss. As usually defined, the clearance is the rate of elimination divided by the concentration. A higher clearance goes with a high capacity for elimination. Usually bioavailability stands for the share of a dose that reaches the circulation, judged against a reference dose that is usually intravenous. A lower bioavailability goes with little systemic uptake. `CC(C)(C)NCc1ccc2c(c1)CCC[C@H]2NC(=O)C[C@@H]1CCCCN1S(=O)(=O)c1cccc(C(F)(F)F)c1`: the half-life in data set [3] is 2 h. The compound also gave a clearance in data set [4] of 36.7 mL/min/kg. In data set [5], the Vd was 5.4 L/kg. In data set [6], the bioavailability was 19%.
As to `COCCNCc1ccc2c(c1)CCC[C@H]2NC(=O)C[C@@H]1CCCCN1S(=O)(=O)c1cccc(C(F)(F)F)c1`, the half-inhibitory concentration (IC50) amounted to 21 nM on B1 bradykinin receptor [1] and 46 nM at B1 bradykinin receptor [2].
On the same counts, the results for `CC(C)(C)NCc1ccc2c(c1)CCC[C@H]2NC(=O)C[C@@H]1CCCCN1S(=O)(=O)c1cccc(Cl)c1` are 120 nM and 73 nM.
Take `Cc1ccc(S(=O)(=O)N2CCCC[C@H]2CC(=O)N[C@@H]2CCCc3cc(CNC(C)(C)C)ccc32)cc1Cl`: the IC50 turned out to be 15 nM at B1 bradykinin receptor [1] and 22 nM on B1 bradykinin receptor [2].
On the same counts, the results for `CC(C)(C)NCc1ccc2c(c1)CCC[C@H]2NC(=O)C[C@@H]1CCCCN1S(=O)(=O)c1cccc2nsnc12` are 150 nM and 180 nM.
Taken in the same sequence, the figures for `CCCCOc1ccc(S(=O)(=O)N2CCCC[C@H]2CC(=O)N[C@@H]2CCCc3cc(CNC(C)(C)C)ccc32)cc1` were 1200 nM and 590 nM.
Take `CC(C)(C)NCc1ccc2c(c1)CCC[C@H]2NC(=O)C[C@@H]1CCCCN1S(=O)(=O)c1ccc(-c2ccccc2)cc1`: the values for the IC50 on B1 bradykinin receptor [1] and at B1 bradykinin receptor [2] were 690 nM and 540 nM, respectively.
For the compound `CC(C)CNCc1ccc2c(c1)CCC[C@H]2NC(=O)C[C@@H]1CCCCN1S(=O)(=O)c1cccc(C(F)(F)F)c1`, the IC50 on B1 bradykinin receptor [1] turned out to be 13 nM; on B1 bradykinin receptor [2], 42 nM.
On the same counts, the results for `O=C(C[C@@H]1CCCCN1S(=O)(=O)c1cccc(C(F)(F)F)c1)N[C@@H]1CCCc2cc(CNC3CCC3)ccc21` are 58 nM and 54 nM.

The record behind these values is ChEMBL document CHEMBL1146114, “A new class of bradykinin 1 receptor antagonists containing the piperidine acetic acid tetralin core” (Bioorg Med Chem Lett, 2006).
